Experimental findings from US8686022B2, “7-(piperazine-1-ymethyl)-1H-indole-2-carboxylic acid (phenyl)-amide derivatives and allied compounds as p38 MAP kinase inhibitors for the treatment of respiratory diseases” (Boehringer Ingelheim International GmbH, priority 2008, dated 2014) are described below.

Series [1] can be described thus: Determining the solubility (saturated solution in McIlvaine buffer pH 7.4, UV spectroscopy). It is filed as physicochemical. Conditions: pH 7.4, aqueous buffer, thermodynamic from solid, shaken 2 hours, 0.75 mg solid in 0.75 ml. The method, then:
Determining the Solubility:
Saturated solutions are prepared in suitable well dishes by adding 0.75 ml of a McIlvaine buffer (pH 7.4) to the well in question containing 0.75 mg of solid of an active substance. The wells are shaken for 2 hours and then filtration is carried out through a suitable filter membrane (typically polytetrafluoroethylene with a pore size of 0.45 μm). Filter absorption is prevented by discarding the first few drops of filtrate. The amount of active substance dissolved is determined by UV spectroscopy.

The next series concerns the target p38 MAP-kinase (Homo sapiens, UniProt Q16539). The series can be described thus: p38 MAP-kinase enzymatic assay (phosphorylation of GST-tagged ATF2, chemoluminescence). Conditions: inhibitor concentration 1 μM; activated p38 MAP-kinase 1 nM; ATP 100 μM; read-out: p38 (% Inh @ 1 μM). It counts as biochemical. The method, then: In this, the amount of a substrate phosphorylated by the kinase is quantified. The test is carried out as follows:
The kinase reaction is carried out in the presence of HEPES (20 mM, pH 7), MgCl2 (10 mM), DTT (1 mM) and TWEEN20 (0.01%). First, dimethylsulphoxide or inhibitor (final concentration: 1 μM) dissolved in dimethylsulphoxide are placed in a reaction vessel. Then the activated p38 MAP-kinase (final concentration 1 nM) is added and the mixture is incubated for 4 h at ambient temperature. Then a mixture of substrate (GST-tagged ATF2) and ATP is added and everything is incubated together for a further hour (final concentration ATP: 100 μM; final concentration ATF2: 10 nM).
The concentration of phosphorylated ATF2 is quantified by chemoluminescence-induced light emission. For this, a glutathione donor bead (final concentration: 5 μg/ml) which binds to the gluthathione on the ATF2 and phospho-ATF2 antibodies are added to the reaction mixture (final concentration: 3 nM; this binds the phosphate group added by the kinase reaction) to which a Protein A Acceptor Bead (final concentration: 5 μg/ml) binds. These components are dissolved in a buffer which contains 20 mM HEPES pH 7.0, 200 mM NaCL, 80 mM EDTA as well as 0.3% BSA. This reaction mixture is incubated in the dark for 1 hour at ambient temperature. When these beads come physically close, visible light is emitted which is measured in a photometer at 520-620 nm.
To determine the inhibitory activity of the compounds according to the invention a calculation is made to determine the percentage by which the kinase activity is inhibited at a fixed inhibitor concentration of 1 μM. The maximum activity is determined by non-inhibited kinase. The minimum activity or nonspecific background activity is determined using a reaction mixture without kinase.
Table 2 summarises the degree of inhibition of the enzyme p38 MAP-kinase—as described hereinbefore—mediated by the compounds according to the invention detailed in the section “Preparation of the final compounds”.

A further series addresses cytochrome P450 2C9 (Homo sapiens, UniProt P11712). The series can be described thus: Determining the cyp2C9 activity (O-demethylation of [O-methyl-14C]-naproxen). It counts as in vitro ADME. Conditions: human recombinant cytochrome P450 2C9; 37° C.; <0.4 μM when inhibition >50% at lowest concentration; read-out: CYP 2C9 IC50. The method, then:
Determining the cyp2C9 Activity:
The assay is carried out in a robot system with 96-well plates. The final incubation volume is 200 μl of TRIS-Puffer (0.1 M), magnesium chloride (5 mM), recombinant protein (40 pmol/ml), ^14C-labelled naproxen (80 μM) and the test compound in one of 4 concentrations (50 μM, 10 μM, 2 μM and 0.4 μM) as a duplicate in each case. After a short preincubation period the reactions are started by the addition of the cofactor (NADPH, 1 mM) and ended after 15 min by the addition of 50 μl of a 10% aqueous trichloroacetic acid solution. One aliquot of the incubate is transferred onto a 96-well solid phase extraction plate and extracted. The ^14C-formaldehyde formed during the reaction is not retained on the solid phase extraction plate and is thus separated from the unmetabolised substrate by washing the solid phase extraction plate with water. One aliquot of the eluate is transferred into a well plate suitable for liquid scintillation. […] The IC50 is determined by the least squares method using the following formula: control activity=(100% control activity/(1+(I/IC50)S))−B where I=Inhibitor concentration S=Pitch B=Background activity
When the inhibition of the reaction is >50% even at the lowest concentration of the test compound, the IC50 is given as <0.4 μM.

Values after ≈ are worked out from the molar mass of the structure shown.

Sequence of cytochrome P450 2C9 (P11712 whole entry): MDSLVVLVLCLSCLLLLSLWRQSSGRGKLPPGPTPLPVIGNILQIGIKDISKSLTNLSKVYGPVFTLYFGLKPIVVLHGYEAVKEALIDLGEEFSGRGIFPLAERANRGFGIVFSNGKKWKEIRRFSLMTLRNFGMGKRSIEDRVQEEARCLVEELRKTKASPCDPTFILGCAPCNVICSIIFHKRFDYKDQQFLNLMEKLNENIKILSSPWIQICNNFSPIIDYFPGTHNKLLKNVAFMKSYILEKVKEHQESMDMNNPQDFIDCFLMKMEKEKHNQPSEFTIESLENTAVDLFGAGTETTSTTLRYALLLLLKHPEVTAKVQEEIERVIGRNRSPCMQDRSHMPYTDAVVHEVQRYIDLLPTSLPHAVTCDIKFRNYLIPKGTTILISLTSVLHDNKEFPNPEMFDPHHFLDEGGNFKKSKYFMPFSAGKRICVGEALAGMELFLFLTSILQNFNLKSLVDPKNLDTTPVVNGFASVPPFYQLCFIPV
Sequence of p38 MAP-kinase (Q16539 whole entry): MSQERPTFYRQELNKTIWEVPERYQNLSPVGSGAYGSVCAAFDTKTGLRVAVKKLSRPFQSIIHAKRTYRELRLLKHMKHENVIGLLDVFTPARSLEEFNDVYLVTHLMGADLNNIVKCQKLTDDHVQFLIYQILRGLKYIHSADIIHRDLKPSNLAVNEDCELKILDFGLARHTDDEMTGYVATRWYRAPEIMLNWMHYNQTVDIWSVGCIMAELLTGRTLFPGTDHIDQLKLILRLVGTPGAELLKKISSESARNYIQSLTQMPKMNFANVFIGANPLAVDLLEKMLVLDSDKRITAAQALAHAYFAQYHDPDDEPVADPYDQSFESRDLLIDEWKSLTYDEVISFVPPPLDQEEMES

As to `COc1c(NC(=O)c2cc3cccc(CN4CCN(C(=O)CN5CCN(C(C)C)CC5)CC4)c3n2C)cc(C(C)(C)C)cc1NS(C)(=O)=O` [1(14), 7-{4-[2-(4-isopropyl-piperazin-1-yl)-acetyl]-piperazin-1-ylmethyl}-1-methyl-1H-indole-2-carboxylic acid-(5-tert-butyl-3-methanesulphonylamino-2-methoxy-phenyl)-amide], the solubility at 2 h in series [1] was 120 µg/mL (≈ 172 µM). In addition, the inhibition at 1 µM at p38 MAP-kinase turned out to be 99.1%. Besides, the IC50 on cytochrome P450 2C9 turned out to be 630 nM.

In series [1], `COc1c(NC(=O)c2cc3cccc(CN4CCN(C(=O)CN5CC[C@H](O)C5)CC4)c3n2C)cc(C(C)(C)C)cc1NS(C)(=O)=O` [1(15), (S)-7-{4-[2-(3-hydroxy-pyrrolidin-1-yl)-acetyl]-piperazin-1-ylmethyl}-1-methyl-1H-indole-2-carboxylic acid-(5-tert-butyl-3-methanesulphonylamino-2-methoxy-phenyl)-amide] gave a solubility at 2 h of 73 µg/mL (≈ 111 µM). Also, at p38 MAP-kinase, the inhibition at 1 µM was 98.9%. Also, at cytochrome P450 2C9, the IC50 was determined as 1210 nM.

`COc1c(NC(=O)c2cc3cccc(CN4CCN(C(=O)CN5CCCC5)CC4)c3n2C)cc(C(C)(C)C)cc1NS(C)(=O)=O` [1(16), 1-methyl-7-[4-(2-pyrrolidin-1-yl-acetyl)-piperazin-1-ylmethyl]-1H-indole-2-carboxylic acid-(5-tert-butyl-3-methanesulphonylamino-2-methoxy-phenyl)-amide] showed a solubility at 2 h in series [1] of 620 µg/mL (≈ 971 µM). Moreover, the inhibition at 1 µM on p38 MAP-kinase was 98.4%. For the same molecule, the IC50 on cytochrome P450 2C9 turned out to be 20400 nM.

Turning to `COc1c(NC(=O)c2cc3cccc(CN4CCN(C(=O)CN5CCN(C)CC5)CC4)c3n2C)cc(C(C)(C)C)cc1NS(C)(=O)=O` [1(17), 1-methyl-7-{4-[2-(4-methyl-piperazin-1-yl)-acetyl]-piperazin-1-ylmethyl}-1H-indole-2-carboxylic acid-(5-tert-butyl-3-methanesulphonylamino-2-methoxy-phenyl)-amide], in series [1], the solubility at 2 h amounted to 46 µg/mL (≈ 68.9 µM). Moreover, at p38 MAP-kinase, the inhibition at 1 µM came to 99.1%. The IC50 at cytochrome P450 2C9 turned out to be 990 nM.

Consider `COc1c(NC(=O)c2cc3cccc(CC4CCCN(C(=O)[C@@H]5CCCN5C)CC4)c3n2C)cc(C(C)(C)C)cc1NS(C)(=O)=O` (stereo partly drawn) [1(18), 1-methyl-7-[1-((2S)-1-methyl-pyrrolidine-2-carbonyl)-azepan-4-ylmethyl]-1H-indole-2-carboxylic acid-(5-tert-butyl-3-methanesulphonylamino-2-methoxy-phenyl)-amide], for which the concentration in solution in series [1] (solubility at 2 h) came to 80 µg/mL (≈ 123 µM). Besides, the inhibition at 1 µM at p38 MAP-kinase came to 98%. For the same molecule, at cytochrome P450 2C9, the concentration for half-maximal inhibition (IC50) was found to be 840 nM.

For `COc1c(NC(=O)c2cc3cccc(CC4CCCN(C(=O)C5CCN(C)CC5)CC4)c3n2C)cc(C(C)(C)C)cc1NS(C)(=O)=O` (stereo not drawn) [1(19), 1-methyl-7-[1-(1-methyl-piperidine-4-carbonyl)-azepan-4-ylmethyl]-1H-indole-2-carboxylic acid-(5-tert-butyl-3-methanesulphonylamino-2-methoxy-phenyl)-amide], the concentration in solution in series [1] (solubility at 2 h) was 98 µg/mL (≈ 147 µM). For the same molecule, on p38 MAP-kinase, the inhibition at 1 µM was 98.5%. In addition, the IC50 at cytochrome P450 2C9 was 3590 nM.

In turn, `COc1c(NC(=O)c2cc3cccc(CC4CCCN(C(=O)[C@H]5CCCN5C)CC4)c3n2C)cc(C(C)(C)C)cc1NS(C)(=O)=O` (stereo partly drawn) [1(20), 1-methyl-7-[1-((2R)-1-methyl-pyrrolidine-2-carbonyl)-azepan-4-ylmethyl]-1H-indole-2-carboxylic acid-(5-tert-butyl-3-methanesulphonylamino-2-methoxy-phenyl)-amide] came in with a solubility at 2 h in series [1] of 124 µg/mL (≈ 190 µM). In addition, the inhibition at 1 µM on p38 MAP-kinase was 99.1%. On cytochrome P450 2C9, the IC50 came to 2590 nM.

`COc1c(NC(=O)c2cc3cccc(CN4CCCN(C(=O)[C@H]5CCCN5C)CC4)c3n2C)cc(C(C)(C)C)cc1NS(C)(=O)=O` [1(21), 1-methyl-7-[4-((2R)-1-methyl-pyrrolidine-2-carbonyl)-[1,4]diazepan-1-ylmethyl]-1H-indole-2-carboxylic acid-(5-tert-butyl-3-methanesulphonylamino-2-methoxy-phenyl)-amide] displayed a solubility at 2 h in series [1] of 45 µg/mL (≈ 68.9 µM). For the same molecule, the inhibition at 1 µM at p38 MAP-kinase stood at 98.9%. In addition, the half-maximal inhibitory concentration (IC50) on cytochrome P450 2C9 is 4020 nM.

`COc1c(NC(=O)c2cc3cccc(CN4CCC(C(=O)N5CCN(C)CC5)CC4)c3n2C)cc(C(C)(C)C)cc1NS(C)(=O)=O` [1(22), 1-methyl-7-[4-(4-methyl-piperazine-1-carbonyl)-piperidin-1-ylmethyl]-1H-indole-2-carboxylic acid-(5-tert-butyl-3-methanesulphonylamino-2-methoxy-phenyl)-amide] had a solubility at 2 h in series [1] of 42 µg/mL (≈ 64.3 µM). Moreover, on p38 MAP-kinase, the inhibition at 1 µM worked out at 99.1%. In addition, the IC50 at cytochrome P450 2C9 turned out to be 1540 nM.

In turn, `COc1c(NC(=O)c2cc3cccc(CN4CCC(C(=O)N5CC[C@H](N(C)C)C5)CC4)c3n2C)cc(C(C)(C)C)cc1NS(C)(=O)=O` [1(23), (S)-7-[4-(3-dimethylamino-pyrrolidine-1-carbonyl)-piperidin-1-ylmethyl]-1-methyl-1H-indole-2-carboxylic acid-(5-tert-butyl-3-methanesulphonylamino-2-methoxy-phenyl)-amide] registered a solubility at 2 h in series [1] of 280 µg/mL (≈ 420 µM). The inhibition at 1 µM at p38 MAP-kinase was found to be 97%. The IC50 at cytochrome P450 2C9 was 1770 nM.

Take `COc1c(NC(=O)c2cc3cccc(CN4CCC(C(=O)N5CC[C@@H](N(C)C)C5)CC4)c3n2C)cc(C(C)(C)C)cc1NS(C)(=O)=O` [1(24), (R)-7-[4-(3-dimethylamino-pyrrolidine-1-carbonyl)-piperidin-1-ylmethyl]-1-methyl-1H-indole-2-carboxylic acid-(5-tert-butyl-3-methanesulphonylamino-2-methoxy-phenyl)-amide]: in series [1], the solubility at 2 h was determined as 36 µg/mL (≈ 54 µM). Also, at p38 MAP-kinase, the inhibition at 1 µM worked out at 54.2%. Further, at cytochrome P450 2C9, the IC50 came out at 2470 nM.

In the case of `CN1CCC[C@H]1C(=O)N1CCN(Cc2cccc3cc(C(=O)Nc4cccc(N5CCOCC5)c4)n(C)c23)CC1` [1(25), (S)-1-methyl-7-[4-(1-methyl-pyrrolidine-2-carbonyl)-piperazin-1-ylmethyl]-1H-indole-2-carboxylic acid-(3-morpholin-4-yl-phenyl)-amide], the solubility at 2 h in series [1] stood at 48 µg/mL (≈ 88.1 µM). Besides, the inhibition at 1 µM at p38 MAP-kinase was 35.4%. In addition, the IC50 on cytochrome P450 2C9 came out at 7910 nM.

As to `COc1c(NC(=O)c2cc3cccc(CN4CCN(C(=O)N5CC[C@H](N(C)C)C5)CC4)c3n2C)cc(C(C)(C)C)cc1NS(C)(=O)=O` [2(1), (S)-7-[4-(3-dimethylamino-pyrrolidine-1-carbonyl)-piperazin-1-ylmethyl]-1-methyl-1H-indole-2-carboxylic acid (5-tert-butyl-3-methanesulphonylamino-2-methoxy-phenyl)-amide], in series [1], the concentration in solution (solubility at 2 h) was 28 µg/mL (≈ 41.9 µM). In addition, the inhibition at 1 µM at p38 MAP-kinase was found to be 99%. Besides, the IC50 at cytochrome P450 2C9 came out at 880 nM.

As to `COc1c(NC(=O)c2cc3cccc(CN4CCCN(C(=O)[C@H]5CCN(C)C5)CC4)c3n2C)cc(C(C)(C)C)cc1NS(C)(=O)=O` [5(1), (S)-1-methyl-7-[4-(1-methyl-pyrrolidine-3-carbonyl)-[1,4]diazepan-1-ylmethyl]-1H-indole-2-carboxylic acid-(5-tert-butyl-3-methanesulphonylamino-2-methoxy-phenyl)-amide], in series [1], the solubility at 2 h is 170 µg/mL (≈ 260 µM). Further, the inhibition at 1 µM on p38 MAP-kinase came to 94.9%. In addition, on cytochrome P450 2C9, the half-maximal inhibitory concentration (IC50) is 2040 nM.
